In patent US20240261417A1, “SOS1 DEGRADING AGENT AND PREPARATION METHOD THEREFOR AND APPLICATION THEREOF” (SHANGHAI LEADINGTAC PHARMACEUTICAL CO. LTD., priority 2021, published 2024):

Experiments:
SOS1 protein = target: T1, SOS1 protein (Homo sapiens, UniProt Q07889); assay: SOS1 degradation assay (Western blot), NCI-H358 cells; assay type: cell-based; design: The degradation of SOS1 by the compounds was investigated on KRAS G12C mutant human non-small cell lung cancer cells NCI-H358; host or cells: NCI-H358 (human cancer cell lines); details: SOS1 degradation, NCI-H358 cells, 24 h, Western blot; for DC50: read-out: NCI-H358 (G12C) DC50; for Dmax: read-out: NCI-H358 (G12C) Dmax
T1 sequence (Q07889 1-1333): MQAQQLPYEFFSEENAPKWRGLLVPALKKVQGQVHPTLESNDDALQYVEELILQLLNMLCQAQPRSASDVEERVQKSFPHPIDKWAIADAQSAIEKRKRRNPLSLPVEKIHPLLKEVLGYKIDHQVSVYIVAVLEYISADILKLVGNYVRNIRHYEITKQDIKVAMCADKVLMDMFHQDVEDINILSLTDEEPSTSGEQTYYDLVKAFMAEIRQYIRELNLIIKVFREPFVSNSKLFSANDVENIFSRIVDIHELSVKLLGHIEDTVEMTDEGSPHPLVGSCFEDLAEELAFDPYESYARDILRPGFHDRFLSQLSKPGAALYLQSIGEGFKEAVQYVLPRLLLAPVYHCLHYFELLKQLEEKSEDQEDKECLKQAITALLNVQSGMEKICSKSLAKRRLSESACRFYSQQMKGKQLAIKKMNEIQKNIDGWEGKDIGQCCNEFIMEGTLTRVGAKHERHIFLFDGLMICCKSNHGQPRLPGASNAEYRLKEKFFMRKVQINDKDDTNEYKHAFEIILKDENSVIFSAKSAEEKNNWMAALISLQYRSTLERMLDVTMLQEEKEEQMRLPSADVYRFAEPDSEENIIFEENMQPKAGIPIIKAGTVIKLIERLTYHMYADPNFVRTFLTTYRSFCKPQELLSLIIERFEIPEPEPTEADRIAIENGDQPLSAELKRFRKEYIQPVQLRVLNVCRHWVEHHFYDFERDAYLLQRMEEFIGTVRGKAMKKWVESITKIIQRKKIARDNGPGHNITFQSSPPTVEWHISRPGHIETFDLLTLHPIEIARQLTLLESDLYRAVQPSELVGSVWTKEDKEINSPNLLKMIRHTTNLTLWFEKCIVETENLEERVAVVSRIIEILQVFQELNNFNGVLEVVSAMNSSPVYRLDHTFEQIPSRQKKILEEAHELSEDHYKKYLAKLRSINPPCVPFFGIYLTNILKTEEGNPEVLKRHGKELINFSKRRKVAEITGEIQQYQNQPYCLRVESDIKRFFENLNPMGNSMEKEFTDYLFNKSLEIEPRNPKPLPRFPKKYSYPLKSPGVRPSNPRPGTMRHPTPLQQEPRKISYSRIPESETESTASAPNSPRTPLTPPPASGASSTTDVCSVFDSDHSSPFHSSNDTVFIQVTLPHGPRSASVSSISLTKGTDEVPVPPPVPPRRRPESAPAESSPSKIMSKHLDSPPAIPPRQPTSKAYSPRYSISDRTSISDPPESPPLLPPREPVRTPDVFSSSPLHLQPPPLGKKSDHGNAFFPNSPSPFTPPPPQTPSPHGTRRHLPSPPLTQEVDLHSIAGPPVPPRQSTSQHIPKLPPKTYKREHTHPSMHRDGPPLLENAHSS
Summary of the method: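 SOS1 degradation was assessed by densitometry of Western blots, relative to untreated controls, after 24 h compound exposure (0.03–3000 nM final, 37 °C, 5% CO2) of cells seeded at 5×10^5/well. Log concentration–response fitting gave DC50 and Dmax.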

KRAS-G12C/SOS1 = target: T2, KRAS-G12C/SOS1 (Homo sapiens, UniProt Q07889); assay: KRAS-G12C/SOS1 binding assay (HTRF); details: inhibition of KRAS-G12C/SOS1 binding
T2 construct: purchased Cisbio 63ADKOOOCB16PEG
T2 sequence (Q07889 1-1333): T1 sequence (Q07889 1-1333)
Description: The following method was used to determine the extent of inhibition of KRAS-G12C/SOS1 binding by the preferred compounds of the present invention under in vitro conditions. In this method, the competitive inhibition of KRAS-G12C/SOS1 binding by the preferred compounds was assayed by the homogeneous time-resolved fluorescence (HTRF) technology using the KRAS-G12C/SOS1 binding assay kit (Cisbio, 63ADKOOOCB16PEG).
The experimental procedures were as follows (refer to the kit instructions for details): the compounds of the present invention were each firstly dissolved in DMSO at a concentration of 20 mM, and then diluted in an equal gradient with a buffer in the kit, so that the final concentrations of the test compounds in the reaction system were in a range of 10000 nM-0.04 nM, and the final concentration of DMSO was 0.5%. 2 μL of the compounds were each incubated with 4 μL of 1×Tag1-SOS1, 4 μL of 1×Tag2-KRAS-G12C (containing 10 μM guanosine triphosphate, GTP) at 25° C. for 15 min. Then 5 μL of 1× Anti-Tag1-Tb3+ and 5 μL of 1× Anti-Tag2-XL665 were added to the reaction system, and the mixture was incubated on ice for 3 h. After the incubation, the fluorescence intensity of each well was measured at the excitation wavelength of 337 nm, the fluorescence intensity of each well was read at the emission wavelengths of 620 nm and 665 nm on a microplate reader EnVision (PerkinElmer, 2105) in an HTRF mode, and the Ratio value was calculated by the formula Ratio=(665 nm/620 nm)×[…]. The inhibition rates of the compounds at each concentration were calculated by comparing the fluorescence intensity ratio with that of the control group, and then nonlinear curve fitting was performed by GraphPad Prism 8 in the logarithmic concentration-inhibition rate to obtain the IC50 values of the compounds, as shown in Table 1.

Row | Structure (SMILES) | DC50 (SOS1 protein) | Dmax (SOS1 protein) | IC50 (KRAS-G12C/SOS1)
1 | COc1cc2nc(C)nc(N[C@H](C)c3cc(-c4c(Cl)cccc4CN(C)C)cs3)c2cc1[C@H]1CC[C@H](C(=O)N2CCN(CCCCC3CCN(C(=O)c4ccc(Cl)c(N5CCC(=O)NC5=O)c4)CC3)CC2)CC1 [Example 71, 1-(2-chloro-5-(4-(4-(4-((1R,4R)-4-(4-(((R)-1-(4-(2-chloro-6-((dimethylamino)methyl)phenyl)thien-2-yl)ethyl)amino)-7-methoxy-2-methylquinazolin-6-yl)cyclohexane-1-carbonyl)piperazin-1-yl)butyl)piperidine-1-carbonyl)phenyl)dihydropyrimidine-2,4(1H,3H)-dione] | < 50 nM | 80 to 100% | ≤ 15 nM
2 | COc1cc2nc(C)nc(N[C@H](C)c3cc(N)cc(C(F)(F)F)c3)c2cc1[C@H]1CC[C@H](C(=O)N2CCC(CCOCC3CCN(C(=O)c4ccc(F)c(N5CCC(=O)NC5=O)c4)CC3)CC2)CC1 [Example 44, 1-(5-(4-((2-(1-((1R,4R)-4-(4-(((R)-1-(3-amino-5-(trifluoromethyl)phenyl)ethyl)amino)-7-methoxy-2-methylquinazolin-6-yl)cyclohexane-1-carbonyl)piperidin-4-yl)ethoxy)methyl)piperidine-1-carbonyl)-2-fluorophenyl)dihydropyrimidine-2,4(1H,3H)-dione] | < 50 nM | – | ≤ 15 nM
3 | COCCOc1cc2nc(C)nc(N[C@H](C)c3cc(N)cc(C(F)(F)F)c3)c2cc1[C@H]1CC[C@H](C(=O)N2CCN(CC3CCC4(CC3)CCN(C(=O)c3ccc(Cl)c(N5CCC(=O)NC5=O)c3)CC4)CC2)CC1 [Example 43, 1-(5-(9-((4-((1R,4R)-4-(4-(((R)-1-(3-amino-5-(trifluoromethyl)phenyl)ethyl)amino)-7-(2-methoxyethoxy)-2-methylquinazolin-6-yl)cyclohexane-1-carbonyl)piperazin-1-yl)methyl)-3-azaspiro[5.5]undecane-3-carbonyl)-2-chlorophenyl)dihydropyrimidine-2,4(1H,3H)-dione] | < 50 nM | 50 to 80% | ≤ 15 nM
4 | COc1cc2nc(C)nc(N[C@H](C)c3cc(-c4c(Cl)cccc4CN(C)C)cs3)c2cc1[C@H]1CC[C@H](C(=O)N2CCN(CC3CCC4(CC3)CCN(C(=O)c3ccc(C5CCC(=O)NC5=O)cc3)CC4)CC2)CC1 (stereo partly drawn) [Example 52, 3-(4-(9-((4-((1R,4R)-4-(4-(((R)-1-(4-(2-chloro-6-((dimethylamino)methyl)phenyl)thien-2-yl)ethyl)amino)-7-methoxy-2-methylquinazolin-6-yl)cyclohexane-1-carbonyl)piperazin-1-yl)methyl)-3-azaspiro[5.5]undecane-3-carbonyl)phenyl)piperidine-2,6-dione] | 100 to 500 nM | 50 to 80% | ≤ 15 nM
5 | COc1cc2nc(C)nc(N[C@H](C)c3cc(N)cc(C(F)(F)F)c3)c2cc1C1=CCC(C(=O)N2CCN(CC3CCC4(CC3)CCN(C(=O)c3ccc(Cl)c(N5CCC(=O)NC5=O)c3)CC4)CC2)CC1 (stereo partly drawn) [Example 51, 1-(5-(9-((4-(4-(4-(((R)-1-(3-amino-5-(trifluoromethyl)phenyl)ethyl)amino)-7-methoxy-2-methylquinazolin-6-yl)cyclohex-3-ene-1-carbonyl)piperazin-1-yl)methyl)-3-azaspiro[5.5]undecane-3-carbonyl)-2-chlorophenyl)dihydropyrimidine-2,4(1H,3H)-dione] | < 50 nM | 80 to 100% | ≤ 15 nM
6 | COc1ccc(C(=O)N2CCC3(CCC(CN4CCN(C(=O)[C@H]5CC[C@H](c6cc7c(N[C@H](C)c8cc(-c9c(Cl)cccc9CN(C)C)cs8)nc(C)nc7cc6OC)CC5)CC4)CC3)CC2)cc1N1CCC(=O)NC1=O [Example 59, 1-(5-(9-((4-((1R,4R)-4-(4-(((R)-1-(4-(2-chloro-6-((dimethylamino)methyl)phenyl)thien-2-yl)ethyl)amino)-7-methoxy-2-methylquinazolin-6-yl)cyclohexane-1-carbonyl)piperazin-1-yl)methyl)-3-azaspiro[5.5]undecane-3-carbonyl)-2-methoxyphenyl)dihydropyrimidine-2,4(1H,3H)-dione] | < 50 nM | 80 to 100% | ≤ 15 nM
